Assay results from ChEMBL document CHEMBL4431384, “Indole-based allosteric inhibitors of HIV-1 integrase” (Bioorg Med Chem Lett, 2016).
Each block holds one compound with its values, some of them ahead of it.

Tests used:
[1] = molecular target: T1, Human immunodeficiency virus type 1 integrase (Human immunodeficiency virus 1, UniProt Q7ZJM1); assay: Inhibition of recombinant full length C-terminal His-tagged HIV1 integrase expressed in Escherichia coli BL21(DE3) cells assessed as inhibition of recombinant C-terminal FLAG-tagged LEDGF/p75-induced integration of viral 32-mer blunt-ended U5 DNA into pBR322 DNA preincubated with enzyme for 30 mins followed by viral and target DNA addition and subsequent addition of LEDGF/p75 after 5 mins measured after 90 mins by HTRF assay; assay type: cell-based
T1 sequence (Q7ZJM1 whole entry): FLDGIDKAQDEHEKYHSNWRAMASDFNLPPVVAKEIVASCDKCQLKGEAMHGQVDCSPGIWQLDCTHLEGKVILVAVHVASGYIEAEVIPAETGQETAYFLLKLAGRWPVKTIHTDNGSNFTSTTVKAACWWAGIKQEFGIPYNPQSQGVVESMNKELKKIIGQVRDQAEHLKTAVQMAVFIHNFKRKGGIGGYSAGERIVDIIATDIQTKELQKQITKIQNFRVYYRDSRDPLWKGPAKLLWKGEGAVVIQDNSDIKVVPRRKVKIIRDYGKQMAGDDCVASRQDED

[2] = molecular target: T1, Human immunodeficiency virus type 1 integrase; assay: (§1) Inhibition of recombinant full length C-terminal His-tagged HIV1 integrase expressed in Escherichia coli BL21(DE3) cells assessed as reduction in LEDGF/p75 independent 3' processing activity using 32P-labeled blunt ended 21-mer DNA as substrate preincubated for 30 mins followed by substrate addition measured after 1 hr by […]
[3] = molecular target: T2, Human immunodeficiency virus type 1 integrase (Human immunodeficiency virus 1, UniProt Q7ZJM1, A128T); assay: Inhibition of recombinant full length HIV1 C-terminal His-tagged integrase A128T mutant multimerization with N-terminal FLAG-tagged integrase A128T mutant expressed in Escherichia coli BL21(DE3) cells after 2.5 hrs by HTRF assay
T2 sequence (Q7ZJM1 entry or part of it A128T): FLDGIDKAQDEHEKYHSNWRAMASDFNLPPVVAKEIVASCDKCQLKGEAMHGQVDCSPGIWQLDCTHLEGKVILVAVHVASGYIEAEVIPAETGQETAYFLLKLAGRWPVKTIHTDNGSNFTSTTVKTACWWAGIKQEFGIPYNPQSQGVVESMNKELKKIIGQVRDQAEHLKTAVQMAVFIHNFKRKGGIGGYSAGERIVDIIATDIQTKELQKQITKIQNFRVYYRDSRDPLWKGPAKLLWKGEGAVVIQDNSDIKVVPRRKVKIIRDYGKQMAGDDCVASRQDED

[4] = molecular target: T1, Human immunodeficiency virus type 1 integrase; assay: Inhibition of C-terminal FLAG-tagged LEDGF/p75 binding to recombinant full length N-terminal His-tagged HIV1 integrase expressed in Escherichia coli BL21(DE3) cells preincubated with enzyme for 30 mins followed by LEDGF/p75 addition by HTRF assay
[5] = molecular target: T1, Human immunodeficiency virus type 1 integrase; assay: Inhibition of recombinant full length HIV1 C-terminal His-tagged integrase multimerization with N-terminal FLAG-tagged integrase expressed in Escherichia coli BL21(DE3) cells after 2.5 hrs by HTRF assay
[6] = molecular target: T2, Human immunodeficiency virus type 1 integrase; assay: as §1, with “integrase A128T mutant” for “integrase”

IC50 [1]: > 100 µM
Structure (SMILES): COc1ccc(-n2c(C(OC(C)(C)C)C(=O)O)c(C)c3ccccc32)cc1 (stereo not drawn)

Structure (SMILES): COC(C(=O)O)c1c(C)nc2ccc(Br)cc2c1-c1ccc(Cl)cc1 (stereo not drawn)
IC50 [1]: 1.3 µM

Structure (SMILES): Cn1c(C(OC(C)(C)C)C(=O)O)c(Cc2ccccc2)c2ccccc21 (stereo not drawn)
IC50 [1]: 31.3 µM

Structure (SMILES): COc1ccc(-c2c(C(OC(C)(C)C)C(=O)O)n(C)c3ccccc23)cc1 (stereo not drawn)
IC50 [1]: 32 µM

IC50 [1]: > 100 µM
Structure (SMILES): Cn1c(CC(OC(C)(C)C)C(=O)O)c(-c2ccccc2)c2ccccc21 (stereo not drawn)

Structure (SMILES): COc1ccc(-c2c(C(OC(C)(C)C)C(=O)O)n(Cc3ccccc3)c3ccccc23)cc1 (stereo not drawn)
IC50 [1]: 59.1 µM

Structure (SMILES): Cn1c(C(OC(C)(C)C)C(=O)O)c(-c2ccccc2)c2ccccc21 (stereo not drawn)
IC50 [1]: 44.1 µM

Structure (SMILES): Cn1c(C(OC(C)(C)C)C(=O)O)c(-c2ccc3c(c2)CCCO3)c2ccccc21 (stereo not drawn)
IC50 [2]: 3.2 µM
IC50 [1]: 4.5 µM
EC50 [3]: 16 µM
IC50 [4]: 28.7 µM
EC50 [5]: 16.1 µM
IC50 [6]: 0.9 µM
